From US6534523B1, “Hepatitis C inhibitor tri-peptides” (Boehringer Ingelheim (Canada) Ltd., priority 1998, dated 2003)

Columns and labels:
[1] = biological target: T1, full length NS3-NS4A heterodimer protein (His-NS3-NS4AFL) (Hepatitis C virus genotype 1b, UniProt P26663); experiment: Full-length NS3-NS4A heterodimer protein assay (Example 38); format: biochemical, HCV genotype 1b
T1 construct: The full length mature NS3 and NS4A heterodimer protein (His-NS3-NS4AFL) was expressed; made in house; host or cells: Sf21 insect cells, recombinant baculovirus
Description: Full-length NS3-NS4A Heterodimer Protein Assay
The NS2-NS5B-3′ non coding region was cloned by RT-PCR into the pCR®3 vector (Invitrogen) using RNA extracted from the serum of an HCV genotype 1b infected individual (provided by Dr. Bernard Willems, Hôpital St-Luc, Montréal, Québec, Canada). The NS3-NS4A DNA region was then subcloned by PCR into the pFastBac™ HTa baculovirus expression vector (Gibco/BRL). The vector sequence includes a region encoding a 28-residue N-terminal sequence which contains a hexahistidine tag. The Bac-to-Bac™ baculovirus expression system (Gibco/BRL) was used to produce the recombinant baculovirus. The full length mature NS3 and NS4A heterodimer protein (His-NS3-NS4AFL) was expressed by infecting 10^6 Sf21 cells/mL with the recombinant baculovirus at a multiplicity of infection of 0.1-0.2 at 27° C. The infected culture was harvested 48 to 64 h later by centrifugation at 4° C. The cell pellet was homogenized in 50 mM NaPO4, pH 7.5, 40% glycerol (w/v), 2 mM β-mercaptoethanol, in presence of a cocktail of protease inhibitors. […] Fluorescence of the N-terminal product was monitored on a Perkin-Elmer LS-50B fluorometer equipped with a 96-well plate reader (excitation wavelength: 325 nm; emission wavelength: 423 nm).
The % inhibition was calculated with the following equation: […]

[2] = biological target: T2, human liver cathepsin B (Cat B) (Homo sapiens, UniProt P07858); experiment: Specificity assay (Example 40), human liver cathepsin B; format: biochemical
T2 construct: from tissue; host or cells: human liver
Method: The specificity of the compounds was determined against a variety of serine proteases: human leukocyte elastase, porcine pancreatic elastase and bovine pancreatic α-chymotrypsin and one cysteine protease: human liver cathepsin B. In all cases a 96-well plate format protocol using a calorimetric p-nitroaniline (pNA) substrate specific for each enzyme was used. Each assay included a 1 h enzyme-inhibitor pre-incubation at 30° C. followed by addition of substrate and hydrolysis to ≈30% conversion as measured on a UV Thermomax® microplate reader. Substrate concentrations were kept as low as possible compared to KM to reduce substrate competition. Compound concentrations varied from 300 to 0.06 μM depending on their potency.
The final conditions for each assay were as follows:
[100 mM NaHPO4 pH 6, 0.1 mM EDTA, 3% DMSO, 1 mM TCEP, 0.01% Tween-20, 30 μM Z-FR-pNA and 5 nM cathepsin B (the stock enzyme was activated in buffer containing 20 mM TCEP before use)].
The sequential 2-fold dilutions of the inhibitor solution were performed on a separate plate by the liquid handler using 50 mM Tris-HCl pH 8, 50 mM NaCl, 0.1 mM EDTA, 0.02% Tween-20, 15% DMSO. All other specificity assays were performed in a similar fashion.
The percentage of inhibition was calculated using the formula:
[1-((UVinh−UVblank)/(UVctl−UVblank))]×100 […]

T1 sequence (P26663 1027-1657): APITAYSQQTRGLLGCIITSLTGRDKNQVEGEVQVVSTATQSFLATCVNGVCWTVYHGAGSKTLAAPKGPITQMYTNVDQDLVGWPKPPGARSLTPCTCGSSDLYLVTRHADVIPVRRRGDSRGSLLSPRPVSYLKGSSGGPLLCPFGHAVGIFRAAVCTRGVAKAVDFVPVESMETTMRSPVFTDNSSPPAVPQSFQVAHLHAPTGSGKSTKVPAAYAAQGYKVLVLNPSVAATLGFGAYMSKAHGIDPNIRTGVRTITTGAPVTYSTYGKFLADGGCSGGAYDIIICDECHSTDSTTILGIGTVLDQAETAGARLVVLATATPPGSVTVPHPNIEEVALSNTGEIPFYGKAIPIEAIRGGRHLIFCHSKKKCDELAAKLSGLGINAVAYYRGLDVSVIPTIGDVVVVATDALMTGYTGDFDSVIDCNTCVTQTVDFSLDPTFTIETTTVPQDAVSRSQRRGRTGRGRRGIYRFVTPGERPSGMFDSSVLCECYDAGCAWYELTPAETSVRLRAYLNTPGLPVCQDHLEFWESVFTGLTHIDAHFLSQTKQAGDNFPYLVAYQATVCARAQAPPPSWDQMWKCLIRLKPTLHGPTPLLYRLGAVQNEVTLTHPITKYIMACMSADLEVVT
T1 sequence (P26663 1658-1711): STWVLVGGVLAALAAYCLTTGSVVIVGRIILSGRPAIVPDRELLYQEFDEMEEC

## C=C[C@@H]1C[C@]1(NC(=O)[C@@H]1C[C@@H](Oc2cc(-c3ccccc3)nc3cc(OC)ccc23)CN1C(=O)[C@@H](NC(=O)OC(C)(C)C)C(C)C)C(=O)O [compound 601]
[1]
  IC50: 30 nM
[2]
  IC50: > 75000 nM
